Results: patent US20260042762A1 (Kymera Therapeutics, Inc., priority 2018, published 2026)

Target: T1, MerTK (Homo sapiens, UniProt Q12866)
T1 construct: endogenous in cells; host or cells: Jurkat cells
T1 sequence (Q12866 21-999): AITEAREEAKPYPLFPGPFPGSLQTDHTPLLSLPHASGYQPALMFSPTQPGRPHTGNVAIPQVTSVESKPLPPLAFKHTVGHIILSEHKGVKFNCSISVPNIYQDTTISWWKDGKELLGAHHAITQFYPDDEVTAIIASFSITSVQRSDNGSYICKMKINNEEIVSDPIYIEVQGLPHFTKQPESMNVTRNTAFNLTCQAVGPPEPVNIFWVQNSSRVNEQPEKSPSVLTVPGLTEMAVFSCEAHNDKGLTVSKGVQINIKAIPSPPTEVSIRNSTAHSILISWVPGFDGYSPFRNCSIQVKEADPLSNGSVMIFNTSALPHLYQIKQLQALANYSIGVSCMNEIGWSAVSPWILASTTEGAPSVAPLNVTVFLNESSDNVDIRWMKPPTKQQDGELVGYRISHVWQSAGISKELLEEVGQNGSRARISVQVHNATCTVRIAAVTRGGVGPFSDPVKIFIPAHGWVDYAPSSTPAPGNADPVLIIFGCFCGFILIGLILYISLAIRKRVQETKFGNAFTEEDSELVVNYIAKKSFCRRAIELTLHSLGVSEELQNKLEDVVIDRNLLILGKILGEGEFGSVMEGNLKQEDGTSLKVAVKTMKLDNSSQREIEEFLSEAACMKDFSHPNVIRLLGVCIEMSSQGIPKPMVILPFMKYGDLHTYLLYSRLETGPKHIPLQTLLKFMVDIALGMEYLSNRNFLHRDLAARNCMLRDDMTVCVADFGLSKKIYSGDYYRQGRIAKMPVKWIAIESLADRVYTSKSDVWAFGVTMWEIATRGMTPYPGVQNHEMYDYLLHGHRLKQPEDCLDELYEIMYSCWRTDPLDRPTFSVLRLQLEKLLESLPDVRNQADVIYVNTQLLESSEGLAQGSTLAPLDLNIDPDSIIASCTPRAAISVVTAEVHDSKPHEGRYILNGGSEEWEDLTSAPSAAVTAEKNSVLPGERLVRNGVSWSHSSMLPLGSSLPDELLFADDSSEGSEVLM
Assay: MerTk degradation in Jurkat cells (Western blot)
Format: cell-based
Settings: Jurkat, 4 h, 0.001-1 μM, 4 hour-incubation at 37° C., read-out: Jurkat Max % MerTK Degradation
How it was run: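 MerTK degradation was read by near-infrared Western blot, normalized to actin, in BCA-quantified lysates of Jurkat cells exposed to 0.001-1 μM compound for 4 h at 37 °C.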

Row | SMILES | Dmax [%]
1 | Cn1c(=O)n([C@H]2CCC(=O)NC2=O)c2ccc(CCN3CC(OCCN4CCN(Cc5ccc(-c6cn([C@H]7CC[C@H](O)CC7)c7nc(NCCC(F)(F)F)ncc67)cc5)CC4)C3)cc21 [I-128, 3-(3-methyl-2-oxo-5-[2-[3-(2-[4-[(4-[7-[trans-4-hydroxycyclohexyl]-2-[(3,3,3-trifluoropropyl)amino]pyrrolo[2,3-d]pyrimidin-5-yl]phenyl)methyl]piperazin-1-yl]ethoxy)azetidin-1-yl]ethyl]-1,3-benzodiazol-1-y1)piperidine-2,6-dione] | 20 to 50
2 | CN1CCN(Cc2ccc(-c3ccc(CO[C@H]4CCC[C@@H]4NC(=O)c4cc(-c5cnn(CCOCCOCCCc6ccc7c(c6)n(C)c(=O)n7C6CCC(=O)NC6=O)c5)cnc4N)cc3)cc2)CC1 (stereo partly drawn) [I-182, 2-Amino-5-(1-[2-(2-[3-[1-(2,6-dioxopiperidin-3-yl)-3-methyl-2-oxo-1,3-benzodiazol-5-yl]propoxy]ethoxy)ethyl]pyrazol-4-yl]-N-[(1S,2S)-2-([4-[(4-methylpiperazin-1-yl)methyl]-[1,1-biphenyl]-4-yl]methoxy)cyclopentyl]pyridine-3-carboxamide] | 20 to 50
3 | CCCCNc1ncc2c(-c3ccc([C@@H](C)N4CCN(CCCOCCCc5ccc6c(c5)n(C)c(=O)n6C5CCC(=O)NC5=O)CC4)cc3)cn([C@H]3CC[C@H](O)CC3)c2n1 (stereo partly drawn) [I-103, 3-[5-[3-(3-[4-[(1R)-1-[4-[2-(butylamino)-7-[trans-4-hydroxycyclohexyl]-7H-pyrrolo[2,3-d]pyrimidin-5-yl]phenyl]ethyl]piperazin-1-yl]propoxy)propyl]-3-methyl-2-oxo-2,3-dihydro-1H-1,3-benzodiazol-1-yl]piperidine-2,6-dione] | > 50
4 | CCCCNc1ncc2c(-c3ccc(CN4CCN(CCCOCCCc5ccc6c(c5)n(C)c(=O)n6[C@H]5CCC(=O)NC5=O)CC4)cc3)cn(C3CCCCC3)c2n1 [I-74, 3-[5-(3-[3-[4-([4-[2-(butylamino)-7-cyclohexyl-7H-pyrrolo[2,3-d]pyrimidin-5-yl]phenyl]methyl)piperazin-1-yl]propoxy]propyl)-3-methyl-2-oxo-2,3-dihydro-1H-1,3-benzodiazol-1-yl]piperidine-2,6-dione] | > 50
5 | Cn1c(=O)n([C@H]2CCC(=O)NC2=O)c2ccc(CCCOCCOCCC3CCN(C[C@H]4CC[C@H](c5cn([C@H]6CC[C@H](O)CC6)c6nc(NCCC(F)(F)F)ncc65)CC4)CC3)cc21 [I-164, 3-[3-methyl-2-oxo-5-(3-[2-[2-(1-[[trans-4-[7-[trans-4-hydroxycyclohexyl]-2-[(3,3,3-trifluoropropyl)amino]pyrrolo[2,3-d]pyrimidin-5-yl]cyclohexyl]methyl]piperidin-4-yl)ethoxy]ethoxy]propyl)-1,3-benzodiazol-1-y1]piperidine-2,6-dione] | > 50
6 | CCCCNc1ncc2c(-c3ccc(CN4CCN(CCOCCOCCOCCOCCCc5ccc6c(c5)n(C)c(=O)n6[C@H]5CCC(=O)NC5=O)CC4)cc3F)cn([C@H]3CC[C@H](O)CC3)c2n1 [I-58, 3-(5-[1-[4-([4-[2-(butylamino)-7-[trans-4-hydroxycyclohexy1]-7H-pyrrolo[2,3-d]pyrimidin-5-y1]-3-fluorophenyl]methyl)piperazin-1-y1]-3,6,9,12-tetraoxapentadecan-15-y1]-3-methyl-2-oxo-2,3-dihydro-1H-1,3-benzodiazol-1-yl)piperidine-2,6-dione] | > 50
7 | Cc1ncsc1-c1ccc(CNC(=O)[C@@H]2C[C@@H](O)CN2C(=O)[C@@H](NC(=O)C2(F)CC2)C(C)(C)C)c(OCCOCCN2CCN(Cc3ccc(-c4cn([C@H]5CC[C@H](O)CC5)c5nc(NCCC(F)(F)F)ncc45)cc3)CC2)c1 [I-174] | 20 to 50
